Data set [1] relates to wild type zebrafish embryos. In words: Maximum tolerated dose in wild type zebrafish embryos. Format: in vivo. Conditions: for Maximum Tolerated Dose (MTD): Wild Type Embryos, 4 treatments, 90 min green light 114 J.cm^−2; for concentration not toxic to embryos in the dark: wild type embryos. The method, then: Water administration (WA) of drugs by skin epithelial cell absorption and drinking is commonly used in zebrafish drug experiments. […] In addition, we also tested IV of TLD1433 by direct injection into the dorsal vein, as well behind the eye injections for RO administration. For IV and RO administration, the compound was injected four times into the embryos at 3, 4, 5 and 6dpf, followed by 60 min drug-to-light interval and the same kinetic and irradiation regime as for the WA administration (Figure 5A).
(A) Schedule of TLD1433 treatment in wild type zebrafish. […] (B) WA, (C) IV, (D) RO. (B–D) Images were made of irradiated (light) and non-irradiated (dark) embryos (n = 30) at 6dpf and the percentages of mortality, malformation and fish length were calculated (shown as means ± SD from three independent experiments). Representative images of embryos under dark and light conditions are shown.
At 2.5, 3.5, 4.5, 5.5 dpf, TLD1433 was added to the fish water and maintained for 12 h. […] At 3, 4, 5, 6 dpf, 1nL of TLD1433 was injected via the dorsal vein or the RO site and maintained for 1 h. […] The images of treated and wild type embryos at 6 dpf were taken using a DFC420C camera coupled to a Leica MZ16FA fluorescence microscope. In order to determine the MTD of tumour cell bearing zebrafish, TLD1433 was performed according to the same procedure, delivered by WA, IV and […] administration as described above for the wild type embryos.

In data set [2] the test system is A431 epidermoid carcinoma cell line. In words: SRB cell viability assay, A431. In kind it is cell-based, Human. The method, then:
TLD1433 is known to generate reactive oxygen species (ROS) with high quantum efficacy in many cancer cell lines. However, there is no report of the in vitro toxicity of this compound in eye melanoma (UM) cell lines. We determined the cell viability of three conjunctival melanoma cell lines (CRMM1, CRMM2 and CM2005.1), and three uveal melanoma cell lines (OMM1, OMM2.5, MEL270) in the presence of TLD1433, both in the dark or under green light irradiation (21 mW/cm^2, 19 J/cm^2, 520 nm, 15 min), and compared this viability to epidermoid carcinoma A431 and cutaneous melanoma A375 cell lines under the same conditions. […] The phototoxicity index (PI), defined as the ratio of the dark EC50 to the light EC50, was also calculated and represents the amplification of TLD1433 activity with a light trigger. […]
Figure 2 Cell viability after TLD1433 treatment of eight tumour cell lines (CRMM1, CRMM2, CM2005.1, OMM1, OMM2.5, MEL270, A431, A375). […] The absorbance of Sulforhodamine B in solution was measured at 520 nm. […]
At day 0, cells were detached using 1mL of trypsin, resuspended in 4 mL of media and transferred to a 15 mL corning falcon tube. Cells were counted using trypan blue and BioRad® TC20™ automated cell counter (Figure 11). […] Next day, the dye was dissolved using Tri-base (0.25%) and absorbance of SRB at 510 nm was recorded from each well using a Tecan plate reader. […]

This note sets out measurements from PMC7139549, “TLD1433 Photosensitizer Inhibits Conjunctival Melanoma Cells in Zebrafish Ectopic and Orthotopic Tumour Models” (Cancers, 2020).

By EC50 is commonly meant the concentration needed to bring the measured effect to its halfway point.

Read-outs that look alike come from different tables or passages of the source. A value given as a limit tells only on which side of the number the result lay.

Take `Cc1ccnc(-c2cc(C)ccn2)c1.Cc1ccnc(-c2cc(C)ccn2)c1.[Cl-].[Cl-].[Ru+2].c1csc(-c2ccc(-c3ccc(-c4nc5c6cccnc6c6ncccc6c5[nH]4)s3)s2)c1` [TLD1433]: the “Maximum Tolerated Dose (MTD)” value in data set [1] (Intravenous 1 nL, 60 min DLI) worked out at 4.6 mM; in data set [1] (Retro-orbital 1 nL, 60 min DLI), 4.6 mM; in data set [1] (Water administration, 12 h DLI) it was 9.2e-06 mM. Besides, the “concentration not toxic to embryos in the dark” value was 11500 µM in data set [1] (IV 1 nL), 11500 µM in data set [1] (RO 1 nL) and 0.023 µM in data set [1] (WA). The EC50 in data set [2] (A431, dark, 24 h treatment, SRB, read-out: EC50, dark) is greater than 5000 nM; in data set [2] (A431, green light 520 nm, 15 min, 21 mW/cm^2, 19 J.cm^−2, DLI 24 h, read-out: EC50,light), 49 nM.
